Experimental data: BindingDB's records for patent US20250382308 (Nuevolution, 2025)

Legend:
[1] = target: T1, Bromodomain-containing protein 4 [58-164] (Homo sapiens, UniProt O60885); test: Bromodomain Assay
T1 construct: 58-164
Protocol: (§1) The liganded beads were blocked with excess biotin and washed with blocking buffer (SeaBlock (Pierce), 1% BSA (bovine serum albumin), 0.05% Tween 20, 1 mM DTT (dithiothreitol)) to remove unbound ligand and to reduce non-specific phage binding. […] Test compounds were prepared as 1000× stocks in 100% DMSO and subsequently diluted 1:10 in monoethylene glycol (MEG) to create stocks at 100× the screening concentration (resulting stock solution is 10% DMSO/90% MEG). The compounds were then diluted directly into the assays such that the final concentration of DMSO and MEG were 0.1% and 0.9%, respectively. All reactions were performed in polystyrene 96-well plates in a final volume of 0.135 ml. […] The bromodomain concentration in the eluates was measured by qPCR (quantitative real-time polymerase chain reaction).

[2] = target: T2, Bromodomain-containing protein 4 [353-454] (Homo sapiens, UniProt O60885); test: Bromodomain Assay
T2 construct: 353-454
Protocol: as §1

[3] = target: cGMP-inhibited 3',5'-cyclic phosphodiesterase 3A (Homo sapiens, UniProt Q14432); test: Radiometric PDE3A Assay
Protocol: Partially purified human recombinant phosphodiesterase (PDE3A) was obtained by cloning cDNA and expressing in S. frugiperda insect cells using a baculovirus expression system. Cells were harvested from culture by centrifuging at 400×g for 5 minutes. Cell pellet was resuspended in 20 ml of RIPA Buffer (150 mM NaCl, 10 mM Tris, 0.1% NP-40, pH8.3), 4 ml/200 ml of culture, plus protease inhibitors (100 μl/10 ml) and incubated on ice for 10-20 minutes then spun at 3500×g for 10 minutes at 4° C. Supernatant was kept and the pellet thrown away. Tritium-labeled cyclic AMP was hydrolysed to 5′-AMP by PDE3A. The 5′-AMP was then further hydrolysed to adenosine by nucleotidase in snake venom. An anion-exchange resin binds all charged nucleotides and leaves [3H]adenosine as the only labeled compound to be counted by liquid scintillation. The radiometric assay method is a modification of the two-step method of Thompson and Appleman [Biochemistry 10; 311-316; 1971], adapted for a 96 well plate format. 50 μl of diluted PDE3A was incubated with 50 μl of [3H]-CAMP (specific activity 25 Ci/mmol) and 11 μl of 50% DMSO (or compound dilution) for 20 minutes at 30° C. […] 50 μl of supernatant was removed and added to 200 μl of MicroScint-20 in white plates (Greiner 96-well Optiplate) and shaken for 30 minutes before reading on Perkin Elmer TopCount Scintillation Counter.

Sequence of cGMP-inhibited 3',5'-cyclic phosphodiesterase 3A (Q14432 whole entry): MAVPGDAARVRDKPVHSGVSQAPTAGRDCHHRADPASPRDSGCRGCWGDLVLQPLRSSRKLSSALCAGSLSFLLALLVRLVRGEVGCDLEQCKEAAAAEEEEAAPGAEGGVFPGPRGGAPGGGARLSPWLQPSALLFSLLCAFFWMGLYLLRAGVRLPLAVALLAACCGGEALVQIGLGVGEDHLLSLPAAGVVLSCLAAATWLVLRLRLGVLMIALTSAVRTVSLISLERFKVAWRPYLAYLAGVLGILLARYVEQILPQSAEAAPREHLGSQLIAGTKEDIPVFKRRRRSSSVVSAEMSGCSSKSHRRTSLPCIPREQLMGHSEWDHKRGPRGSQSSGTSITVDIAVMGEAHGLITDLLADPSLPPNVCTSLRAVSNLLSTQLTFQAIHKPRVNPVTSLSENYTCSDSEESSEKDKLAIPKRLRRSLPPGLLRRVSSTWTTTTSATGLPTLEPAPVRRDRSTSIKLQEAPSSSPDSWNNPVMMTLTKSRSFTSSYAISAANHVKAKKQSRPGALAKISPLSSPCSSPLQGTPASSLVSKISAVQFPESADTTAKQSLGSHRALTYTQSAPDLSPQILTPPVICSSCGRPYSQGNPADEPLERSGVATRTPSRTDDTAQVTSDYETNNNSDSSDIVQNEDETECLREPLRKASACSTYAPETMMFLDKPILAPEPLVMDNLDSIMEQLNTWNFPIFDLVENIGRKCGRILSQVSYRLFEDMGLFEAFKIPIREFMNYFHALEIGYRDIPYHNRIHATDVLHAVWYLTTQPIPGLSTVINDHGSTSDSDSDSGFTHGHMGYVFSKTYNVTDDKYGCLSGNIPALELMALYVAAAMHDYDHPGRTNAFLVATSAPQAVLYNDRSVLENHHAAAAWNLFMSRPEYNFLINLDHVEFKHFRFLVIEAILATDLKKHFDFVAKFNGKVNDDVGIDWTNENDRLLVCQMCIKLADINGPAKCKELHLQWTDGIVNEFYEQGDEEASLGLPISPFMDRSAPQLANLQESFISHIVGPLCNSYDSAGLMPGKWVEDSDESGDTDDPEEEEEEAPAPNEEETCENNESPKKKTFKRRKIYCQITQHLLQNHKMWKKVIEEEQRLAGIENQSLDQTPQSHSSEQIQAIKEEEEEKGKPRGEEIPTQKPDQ

Q: What does the source list for `COc1cc(NC(=O)c2cc3c(nc2N2CCC(F)(F)C2)COC3)cc2c(C)cc(=O)[nH]c12` [US20250382308, Example 16]?
A: Kd [1]: 21 nM; Kd [2]: 900 nM

Q: Which results are given for `CCN(CC)c1nc2c(cc1C(=O)Nc1cc(OC)c3[nH]c(=O)cc(C)c3c1)COC2` [US20250382308, Example 27]?
A: IC50 [3]: > 10000 nM; Kd [1]: 25 nM; Kd [2]: 600 nM
